Assay results reported in publication PMC9057582, “HIF inhibitor 32-134D eradicates murine hepatocellular carcinoma in combination with anti-PD1 therapy” (The Journal of Clinical Investigation, 2022).

Test system: Hep3B tumor xenograft
Experiment: Hep3B tumor xenograft growth in nude mice
Format: in vivo, nude (nu/nu) mice
Description: Hep3B cells were injected subcutaneously into nude (nu/nu) mice and when tumors reached a volume of 150 mm^3 (designated day 1), the mice were treated with vehicle or 32-134D by daily intraperitoneal injection. […] Treatment with 32-134D for 17 days had no effect on mouse appearance, behavior, or body weight (Supplemental Figure 4B). We treated additional mice with 32-134D at a dose of 40 mg/kg versus vehicle and confirmed inhibition of tumor growth without effects on body weight (Supplemental Figure 5, A–C).
Figure 2 Effect of 32-134D on Hep3B tumor xenograft growth and vascularization. (A) Female nude mice received a subcutaneous injection of […] Hep3B cells. When tumors reached a volume of 150 mm^3 (designated treatment day 1), the mice were randomized to receive a daily intraperitoneal injection of 32-134D at a dose of 0 (blue), 20 (black), 40 (red), or 80 (green) mg/kg. Data are presented as mean tumor volume (± SEM; n = 4 each). **P < 0.01, ***P < 0.001 (ANOVA with Bonferroni’s post hoc test). (B) Gross pathology of tumors harvested from vehicle-treated (top panel) and 32-134D–treated (bottom panel) mice. (C) Nuclear extracts prepared from tumors were assayed by immunoblotting using antibodies against the indicated proteins. (D) Total RNA was isolated from tumor tissue and analyzed by RT-qPCR using primers specific for the indicated mRNAs and results (mean ± SEM, n = 4) were normalized to the mean value for tumors from vehicle-treated mice. (E) ELISA for the indicated proteins was performed using aliquots of tumor lysates (mean ± SEM; n = 3–4 tumors each). *P < 0.05 (Mann-Whitney test). (F) Formalin-fixed and paraffin-embedded tumor sections were analyzed by immunohistochemistry using an antibody against CD31 to identify vascular endothelial cells. Scale bar: 100 μm. The total CD31^+ vessel area per field was quantified using ImageJ (mean ± SEM; n = 4 tumors with 5 sections per tumor). *P < 0.05 (Student’s t test).
Female nude mice (NCI Athymic NCr-nu/nu) and male C57L mice were purchased from Charles River and The Jackson Laboratory, respectively. Hep3B (8 × 10^6) and Hepa1-6 (1 × 10^7) cells were resuspended in PBS and Matrigel (1:1, vol/vol) and implanted subcutaneously in 6- to 8-week-old mice, and tumor volume was calculated as V = abc × 0.52. For Hep3B tumor studies, once tumors reached 100 to 150 mm^3, mice were randomized into groups to receive daily intraperitoneal injection of either 32-134D or vehicle only (20% PEG-400, 10% Cremophor EL, 10% ethanol in PBS). For Hepa1-6 tumors, mice were randomized to receive treatment once tumors became palpable (tumor eradication experiment) or reached a volume of 200 mm^3 (harvesting of tumors for flow cytometry and analysis of RNA and protein expression). Tumors were harvested 4 hours after the last treatment (see Supplemental Table 6 for reagent sources).
Supplemental Figure 4. […]
Female nude mice received a subcutaneous injection of 8 x 10^6 Hep3B cells. […] (A) Tumor volumes were determined every other day. […] (B) Body weights of tumor-bearing mice were measured every other data and are presented as mean + SEM (n = 3-4 per group). […]
Supplemental Figure 5. […] (A-D) Tumor bearing mice were treated with daily intraperitoneal injection of vehicle (black) or 32-134D (red; 40 mg/kg) and individual (A) and mean (B) tumor volumes as well as body weight (C) were determined every other day and mean tumor weights (D) were determined on day 17 (mean + SEM, n =4). *P < 0.05 by ANOVA. […]

`Brc1ccc2c(-c3csc(-c4c[nH]c5c(Br)cccc45)n3)c[nH]c2c1` [Compound 32-134D] was tested, and the tumor xenograft growth (20 mg/kg daily intraperitoneal, P < 0.01 vs vehicle) was “partial growth inhibition”, the tumor xenograft growth (40 mg/kg daily intraperitoneal, P < 0.001 vs vehicle) was “maximal growth inhibition” and the “tumor mass at harvest” value (40 mg/kg, day 17, P < 0.05) was “significantly decreased”. For the same molecule, the tumor xenograft growth (80 mg/kg daily intraperitoneal, P < 0.001 vs vehicle) was “maximal growth inhibition” and the “mouse appearance, behavior, or body weight” value (treatment for 17 days) was “no effect”.
